Experimental data published in PMC11579512, “Deoxybouvardin-glucoside induces apoptosis in non-small cell lung cancer cells by targeting EGFR/MET and AKT signaling pathway” (EXCLI Journal, 2024).

Columns and labels:
HCC827GR cells [1] = test: Intracellular ROS (Muse Oxidative Stress Kit), HCC827GR; format: cell-based, human; settings: 48 h, control 16.69 %
Protocol: (§1) HaCaT cells were grown in DMEM, whereas HCC827 and HCC827GR cells were grown in RPMI 1640. All culture media were supplemented with FBS (10 %) and P/S (1 %), and the cells were grown at 37 °C in 5 % CO2.
The levels of intracellular ROS were measured using a Muse™ Oxidative Stress Kit (MCH100111, Merck Millipore) in accordance with the manufacturer's instructions. The cells were incubated with a Muse™ Oxidative Stress Reagent working solution in the dark at 37 °C for 30 min. Intracellular ROS generation was measured using a Muse™ Cell Analyzer.

CDK4 = test: Immunoblot CDK4 in HCC827 and HCC827GR cells; format: cell-based, human; settings: for CDK4 protein ratio: relative to DBG 0 nM = 1.00
Protocol: as §1
(§2) Cells were lysed in RIPA buffer, and protein concentration was determined using a Bio-Rad DC Protein Assay kit (Bio-Rad, Hercules, CA, USA). Protein samples from the cell lysates were resolved by sodium dodecyl sulfate-polyacrylamide gel electrophoresis and then transferred onto polyvinylidene fluoride membranes. The membranes were blocked with 3 % or 5 % skim milk and then incubated at 4 °C overnight with the indicated primary antibodies, followed by the corresponding horseradish peroxidase-conjugated secondary antibodies at RT for 2 h. Protein bands were visualized using western blotting luminol reagent solution and ImageQuant LAS 500 (GE Healthcare, Uppsala, Sweden). The density of the bands was quantified using ImageJ software (NIH, Bethesda, MD, USA).

CDK6 = test: Immunoblot CDK6 in HCC827 and HCC827GR cells; format: cell-based, human; settings: for CDK6 protein ratio: relative to DBG 0 nM = 1.00
Protocol: as §1, §2

AKT1 = target: T1, AKT1 (Homo sapiens, UniProt P31749); test: In vitro ADP-Glo kinase assay, AKT1; format: biochemical
T1 construct: purchased Promega
Protocol: Subsequently, each well was added with ADP-Glo reagent and incubated for another 40 min. After completion of the kinase reaction, each well was added with kinase activity detection reagent and then incubated for 30 min. Liquid was dispensed with I.DOT (Dispendix, Stuttgart, Germany). Luminescence was measured on a Centro LB 960 microplate luminometer (Berthold Technologies).

cytochrome c (cytosol) = test: Immunoblot cytosolic cytochrome c in HCC827 and HCC827GR cells; format: cell-based, human
Protocol: as §2
The cells were suspended in plasma membrane extraction buffer [250 mM sucrose, 10 mM HEPES (pH 8.0), 10 mM KCl, 1.5 mM MgCl2• 6H2O, 1 mM EGTA, 1 mM EDTA, 0.1 mM PMSF, 0.01 mg/ml aprotinin, and 0.01 mg/ml leupeptin], and 0.1 % digitonin was added for vortexing (1 min). The supernatant was collected as the cytosolic fraction. The pellet was resuspended in plasma membrane extraction buffer containing 0.5 % Triton X-100. The lysates were centrifuged at 13,000 rpm for 30 min to separate the mitochondrial fraction.

CDK2 = test: Immunoblot CDK2 in HCC827 and HCC827GR cells; format: cell-based, human; settings: for CDK2 protein ratio: relative to DBG 0 nM = 1.00
Protocol: as §1, §2

HCC827GR cells [2] = test: MTT viability after NAC pretreatment, HCC827GR; format: cell-based, human; settings: for cell viability (relative to untreated = 100.00): HCC827GR
Protocol: All culture media were supplemented with FBS (10 %) and P/S (1 %), and the cells were grown at 37 °C in 5 % CO2.
The cells were treated with MTT and incubated for 2 h. The supernatants were removed, and the remaining formazan crystals were dissolved in DMSO before absorbance measurement at 570 nm using a Multiscan GO spectrophotometer (Thermo Fisher Scientific, Vantaa, Finland).

T1 sequence (P31749 whole entry): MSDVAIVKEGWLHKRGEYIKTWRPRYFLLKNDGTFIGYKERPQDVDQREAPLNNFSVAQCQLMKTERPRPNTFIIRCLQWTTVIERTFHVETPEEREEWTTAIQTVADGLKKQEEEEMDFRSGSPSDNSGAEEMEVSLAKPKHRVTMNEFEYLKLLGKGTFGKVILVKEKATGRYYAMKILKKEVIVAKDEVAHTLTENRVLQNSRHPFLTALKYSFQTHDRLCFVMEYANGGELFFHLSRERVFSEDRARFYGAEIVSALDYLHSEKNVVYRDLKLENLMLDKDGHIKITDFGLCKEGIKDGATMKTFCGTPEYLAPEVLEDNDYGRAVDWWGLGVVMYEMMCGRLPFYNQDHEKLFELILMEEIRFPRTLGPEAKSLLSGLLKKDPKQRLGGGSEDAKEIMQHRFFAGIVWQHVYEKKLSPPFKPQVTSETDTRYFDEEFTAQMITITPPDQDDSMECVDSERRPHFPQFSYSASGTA

Work on `COc1ccc(C[C@H]2C(=O)N[C@@H](C)C(=O)N(C)[C@H]3Cc4ccc(cc4)Oc4cc(ccc4O[C@@H]4O[C@H](CO)[C@@H](O)[C@H](O)[C@H]4O)C[C@@H](C(=O)N[C@H](C)C(=O)N[C@@H](C)C(=O)N2C)N(C)C3=O)cc1` [DBG, deoxybouvardin glucoside] yielded an ROS level (HCC827GR cells [1]; DBG 3 nM) of 36.89%, an ROS level (HCC827GR cells [1]; DBG 6 nM) of 39.97% and an ROS level (HCC827GR cells [1]; DBG 12 nM) of 47.92%. The “level of CDKs (CDK4)” value (CDK4; DBG 3, 6, 12 nM, 48 h) was “significantly decreased”, the CDK4 protein/actin (CDK4; HCC827, DBG 3 nM, DBG 0 nM 0.59) was 0.35 and the CDK4 protein ratio (CDK4; HCC827, DBG 3 nM) was 0.58. For the same compound, the CDK4 protein/actin (CDK4; HCC827, DBG 6 nM, DBG 0 nM 0.59) was 0.30, the CDK4 protein ratio (CDK4; HCC827, DBG 6 nM) was 0.50 and the CDK4 protein/actin (CDK4; HCC827, DBG 12 nM, DBG 0 nM 0.59) was 0.32. The CDK4 protein ratio (CDK4; HCC827, DBG 12 nM) was 0.53, the CDK4 protein/actin (CDK4; HCC827GR, DBG 3 nM, DBG 0 nM 0.72) was 0.61 and the CDK4 protein ratio (CDK4; HCC827GR, DBG 3 nM) was 0.85. The CDK4 protein/actin (CDK4; HCC827GR, DBG 6 nM, DBG 0 nM 0.72) was 0.55, the CDK4 protein ratio (CDK4; HCC827GR, DBG 6 nM) was 0.77 and the CDK4 protein/actin (CDK4; HCC827GR, DBG 12 nM, DBG 0 nM 0.72) was 0.30. For the same compound, the CDK4 protein ratio (CDK4; HCC827GR, DBG 12 nM) was 0.42, the “level of CDKs (CDK6)” value (CDK6; DBG 3, 6, 12 nM, 48 h) was “significantly decreased” and the CDK6 protein/actin (CDK6; HCC827, DBG 3 nM, DBG 0 nM 0.53) was 0.32. It also gave a CDK6 protein ratio (CDK6; HCC827, DBG 3 nM) of 0.60, a CDK6 protein/actin (CDK6; HCC827, DBG 6 nM, DBG 0 nM 0.53) of 0.19 and a CDK6 protein ratio (CDK6; HCC827, DBG 6 nM) of 0.36. For the same compound, the CDK6 protein/actin (CDK6; HCC827, DBG 12 nM, DBG 0 nM 0.53) was 0.07, the CDK6 protein ratio (CDK6; HCC827, DBG 12 nM) was 0.14 and the CDK6 protein/actin (CDK6; HCC827GR, DBG 3 nM, DBG 0 nM 0.70) was 0.55. The CDK6 protein ratio (CDK6; HCC827GR, DBG 3 nM) was 0.79, the CDK6 protein/actin (CDK6; HCC827GR, DBG 6 nM, DBG 0 nM 0.70) was 0.47 and the CDK6 protein ratio (CDK6; HCC827GR, DBG 6 nM) was 0.67. The CDK6 protein/actin (CDK6; HCC827GR, DBG 12 nM, DBG 0 nM 0.70) was 0.30, the CDK6 protein ratio (CDK6; HCC827GR, DBG 12 nM) was 0.43 and the IC50 (AKT1; ADP-Glo, AKT1 10 ng, RT, 60 min, luminescence, n=3) was 6.86 nM. For the same compound, the “kinase activity, in words” value (AKT1; DBG 3, 6, 12 nM) was “significantly inhibited”, the “cyto c (cytosol) cyto c/β-tubulin/actin (A)” value (cytochrome c (cytosol); HCC827, DBG 3 nM, DBG 0 nM 12.22) was 16.55 and the “cyto c (cytosol) protein Ratio” value (cytochrome c (cytosol); HCC827, DBG 3 nM, relative to DBG 12 nM = 1.00, DBG 0 nM 0.18) was 0.25. For the same compound, the “cyto c (cytosol) cyto c/β-tubulin/actin (A)” value (cytochrome c (cytosol); HCC827, DBG 6 nM, DBG 0 nM 12.22) was 47.59, the “cyto c (cytosol) protein Ratio” value (cytochrome c (cytosol); HCC827, DBG 6 nM, relative to DBG 12 nM = 1.00, DBG 0 nM 0.18) was 0.72 and the “cyto c (cytosol) protein Ratio” value (cytochrome c (cytosol); HCC827, DBG 12 nM (reference of the ratio, 1.00), DBG 0 nM 0.18) was 1.00. For the same compound, the “cyto c (cytosol) cyto c/β-tubulin/actin (A)” value (cytochrome c (cytosol); HCC827, DBG 12 nM, DBG 0 nM 12.22) was 66.24, the “cyto c (cytosol) cyto c/β-tubulin/actin (A)” value (cytochrome c (cytosol); HCC827GR, DBG 3 nM, DBG 0 nM 5.99) was 33.57 and the “cyto c (cytosol) protein Ratio” value (cytochrome c (cytosol); HCC827GR, DBG 3 nM, relative to DBG 12 nM = 1.00, DBG 0 nM 0.07) was 0.41. For the same compound, the “cyto c (cytosol) cyto c/β-tubulin/actin (A)” value (cytochrome c (cytosol); HCC827GR, DBG 6 nM, DBG 0 nM 5.99) was 49.49, the “cyto c (cytosol) protein Ratio” value (cytochrome c (cytosol); HCC827GR, DBG 6 nM, relative to DBG 12 nM = 1.00, DBG 0 nM 0.07) was 0.60 and the “cyto c (cytosol) protein Ratio” value (cytochrome c (cytosol); HCC827GR, DBG 12 nM (reference of the ratio, 1.00), DBG 0 nM 0.07) was 1.00. For the same compound, the “cyto c (cytosol) cyto c/β-tubulin/actin (A)” value (cytochrome c (cytosol); HCC827GR, DBG 12 nM, DBG 0 nM 5.99) was 82.76, the cytochrome c release (cytochrome c (cytosol); NSCLC cells, DBG, cytosolic and mitochondrial fractions) was “released from the mitochondria” and the “level of CDKs (CDK2)” value (CDK2; DBG 3, 6, 12 nM, 48 h) was “significantly decreased”. It also gave a CDK2 protein/actin (CDK2; HCC827, DBG 3 nM, DBG 0 nM 0.56) of 0.43, a CDK2 protein ratio (CDK2; HCC827, DBG 3 nM) of 0.77 and a CDK2 protein/actin (CDK2; HCC827, DBG 6 nM, DBG 0 nM 0.56) of 0.20. It also gave a CDK2 protein ratio (CDK2; HCC827, DBG 6 nM) of 0.36, a CDK2 protein/actin (CDK2; HCC827, DBG 12 nM, DBG 0 nM 0.56) of 0.17 and a CDK2 protein ratio (CDK2; HCC827, DBG 12 nM) of 0.30. For the same compound, the CDK2 protein/actin (CDK2; HCC827GR, DBG 3 nM, DBG 0 nM 0.58) was 0.44, the CDK2 protein ratio (CDK2; HCC827GR, DBG 3 nM) was 0.76 and the CDK2 protein/actin (CDK2; HCC827GR, DBG 6 nM, DBG 0 nM 0.58) was 0.36. The CDK2 protein ratio (CDK2; HCC827GR, DBG 6 nM) was 0.62, the CDK2 protein/actin (CDK2; HCC827GR, DBG 12 nM, DBG 0 nM 0.58) was 0.25 and the CDK2 protein ratio (CDK2; HCC827GR, DBG 12 nM) was 0.44. The “cell viability (relative to untreated = 100.00)” value (HCC827GR cells [2]; DBG 12 nM, mean of 3) was 38.91, the “cell viability (relative to untreated = 100.00)” value (HCC827GR cells [2]; DBG 12 nM, replicate 1) was 39.88 and the “cell viability (relative to untreated = 100.00)” value (HCC827GR cells [2]; DBG 12 nM, replicate 2) was 38.76. For the same compound, the “cell viability (relative to untreated = 100.00)” value (HCC827GR cells [2]; DBG 12 nM, replicate 3) was 38.08, the “cell viability (relative to untreated = 100.00)” value (HCC827GR cells [2]; NAC 4 mM + DBG 12 nM, mean of 3) was 99.25 and the “cell viability (relative to untreated = 100.00)” value (HCC827GR cells [2]; NAC 4 mM + DBG 12 nM, replicate 1) was 100.78. The “cell viability (relative to untreated = 100.00)” value (HCC827GR cells [2]; NAC 4 mM + DBG 12 nM, replicate 2) was 98.32, the “cell viability (relative to untreated = 100.00)” value (HCC827GR cells [2]; NAC 4 mM + DBG 12 nM, replicate 3) was 98.66 and the “anticancer activity of DBG after NAC pretreatment” value (HCC827GR cells [2]; NAC 4 mM, 3 h, DBG 48 h) was “decreased”. For the same compound, the “cytotoxicity after NAC pretreatment” value (HCC827GR cells [2]; NAC 4 mM, DBG 12 nM) was “a little, if any, cytotoxicity only at 12 nM”.
